{
  "source": "patent US4737517A",
  "about": "“Coumarin derivatives, pharmaceutical compositions containing the same, and the use thereof in the treatment of cancer” (FIDIA, S.p.A., priority 1983, dated 1988)",
  "key": {"[1]": {"tested_on": "platelet hyper-aggregation induced by ADP", "test": "Inhibition of ADP-induced platelet hyperaggregation in vitro (Born's method, aggregometer ELVI 840)", "assay_type": "cell-based, New Zealand rabbits", "conditions": "Oryctolagus cuniculus, 0.5 h, read-out: Inhibition of platelet hyper-aggregation induced by ADP", "method": "Two separate centrifugations are effected (at 1000 rpm and at 6000 rpm), thus obtaining PRP ([…]) and PPP ([…]); the first is diluted with the second in order to obtain a platelet concentration of 300,000 per mm^3 (the count is effected in a Buerker apparatus). The compounds with a platelet antiaggregating activity of the present invention are added at the desired concentrations and incubated for 30 minutes at 37° C. with the aggregating agents. […] The various compounds represented by the numbers in the first column are identifiable by the numbers in the second column which refer to the examples described below in this specification."}, "[2]": {"test": "Acute toxicity in the rat, oral", "parameters": "species or system rat (Sprague Dawley)", "conditions": "in vivo, aqueous solution, up to 14 days, Litchfield and Wilcoxon", "method": "Acute toxicity in the rat: groups of Sprague Dawley rats (male+female) are treated with graduated doses ranging from 0.125 g/kg of body weight to 10 g/kg of body weight of the above mentioned compounds in aqueous solution. The compounds are administered orally by intubation. Subsequent death may be immediate or may occur at any time up to 14 days after treatment.\nThe lethal dose 50 (LD50), that is, the dose which causes the death of 50% of the animals, is evaluated by the method of Litchfield and Wilcoxon (J. Pharmacol. Ex. Ther. 96, 99-113, 1949)."}, "[3]": {"tested_on": "3 LL carcinoma cells (Lewis lung carcinoma)", "test": "Antitumor and antimetastatic activity in mice implanted with 3 LL Lewis lung carcinoma", "assay_type": "in vivo, male mice of the C57B1/6J strain", "conditions": "oral; for No. of metastases: lungs, controls 21.8 ± 4.9; for No. of metastases / Primary Tumor Weight: 25th day after transplant; for Primary Tumor Weight: controls 9087 ± 386", "method": "This activity is to be seen for instance after administration of doses of between 0.2 mg/kg and 10 mg/kg by the oral route, as illustrated by the following experiments.\n1×10^5 3 LL carcinoma cells (Lewis lung carcinoma) are implanted by intramuscular injection in the paws of male mice of the C57B1/6J strain, weighing about 20-22 g. This operation is effected as described in the literature (Poggi A. et al. Cancer Res. 37, 272-277, 1977). The growth of the tumor is observed until the 25th day after transplant. On this day the animals are sacrificed and the primary tumor and lungs are removed in order to evaluate the growth of the primary tumor and the number of metastases. Pharmacological treatment by the oral route begins 2 days before transplant of the tumor and continues until sacrifice. The substances are dissolved in tap water and are changed every 24 hours.\nTable 2 reports the results obtained with the two coumarin derivatives 19 and 26, previously mentioned in comparison to Warfarin, the well-known […] and antimetastatic compound, which is also a coumarin derivative. Warfarin's antimetastatic activity is widely documented both experimentally (Zacharski, L. R. et al. Cancer 44, 732-741, 1979 and Poggi, A. et al. Lancet i 163-164, 1978) and clinically (Zacharski, L. R. et al. J. Am. Med. Assoc. 245, 831-835, 1981). […] This effect is measured by the number of metastases (Zacharski, L. R. et al. Cancer 44, 732-741, 1979 and Poggi, A. et al. Lancet i 163-164, 1978).\n(§1) The anticoagulating effect measured by the \"thrombotest\", the antitumor effect measured by the decrease in weight of the primary tumor and the antimetastatic effect shown as the number of metasteses present in the lungs, are reported in Table 2. While the antitumor and antimetastatic effects of Warfarin and the two new products according to the present invention are roughly equal, the strong anticoagulating effect is absent in the two new products of the invention. This is a completely unexpected result."}, "coagulation": {"tested_on": "coagulation", "test": "Thrombotest on capillary blood (anticoagulating effect)", "assay_type": "in vivo, mice (C57B1/6J)", "conditions": "oral, controls 31.4 ± 1.7", "method": "In a separate experiment, the anticoagulating activity of the compounds is verified on the same strain of mice at the same doses used for antimetastatic activity evaluation.\nThe effect on coagulation is measured by a thrombotest on capillary blood taken from the retroorbital cavity (Owren, P. A. et al. Lancet ii, 754-758, 1959).\nas §1"}, "[4]": {"test": "Acute toxicity in the mouse, oral", "parameters": "species or system mouse (Swiss)", "conditions": "in vivo, aqueous solution, up to 14 days, Litchfield and Wilcoxon", "method": "Acute toxicity in the mouse: groups of Swiss mice (male+female) are treated with graduated doses ranging from 0.125 g/kg to 5 g/kg of body weight with compounds 19 to 26. The compounds are administered orally by intubation and dissolved in water.\nSubsequent death may be immediate or may occur at any time up to 14 days after treatment. The lethal dose 50 (LD50), that is, the dose which causes the death of 50% of the animals, is evaluated by the method of Litchfield and Wilcoxon (J. Pharmacol. Exp. Ther. 96, 99-113, 1949)."}, "lung carcinoma": {"tested_on": "lung carcinoma", "conditions": "cited from earlier work"}, "[5]": {"tested_on": "3 LL carcinoma cells (Lewis lung carcinoma)", "conditions": "number of metastases; mice of the C57B1/6J strain; cited from earlier work"}, "[6]": {"conditions": "1st adminis. 2.1 mg/kg, 2nd adminis. 0.5 mg/kg"}},
  "data": [
    {"smiles": "C=CCc1c(O)c(CN2CCN(CCO)CC2)cc2c(C)cc(=O)oc12.ClOCl", "note": "[Compound 26, 4-methyl-6-[[4-(2-hydroxyethyl)-1-piperazinyl]methyl]-7-hydroxy-8-allylcumarin dichlorohydrate]", "values": [
      {"measurement": "inhibition at 100 µg/mL", "setting": "[1]", "result": 23, "unit": "%"},
      {"measurement": "LD50 at 336 h", "setting": "[2]", "result": 3160, "unit": "mg/kg"},
      {"measurement": "antitumoral and antimetastatic activity (in words)", "setting": "[3]; in vivo on mice", "result": "antitumoral and antimetastatic activity"},
      {"measurement": "No. of metastases", "setting": "[3]; [6]", "result": "9.8 ± 2.8"},
      {"measurement": "Primary Tumor Weight", "setting": "[3]; [6]", "result": "6789 ± 349", "unit": "mg"},
      {"measurement": "Thrombotest", "setting": "coagulation; [6]", "result": "33.4 ± 1.2"},
      {"measurement": "LD50 at 336 h", "setting": "[4]", "result": 1950, "unit": "mg/kg"}
    ]},
    {"smiles": "CC(=O)CC(c1ccccc1)c1c(O)c2ccccc2oc1=O", "note": "(stereo not shown) [Warfarin, reference compound]", "values": [
      {"measurement": "anticoagulating activity in antitumor therapy (in words)", "setting": "lung carcinoma; human, in vivo", "result": "strong anticoagulating activity"},
      {"measurement": "survival time in patients with lung carcinoma (in words)", "setting": "lung carcinoma; in association with chemotherapy and radiation", "result": "prolongs survival time"},
      {"measurement": "antimetastatic effect on Lewis lung carcinoma (in words)", "setting": "[5]", "result": "has an antimetastatic effect"},
      {"measurement": "No. of metastases", "setting": "[3]; doses not given", "result": "12.4 ± 0.9"},
      {"measurement": "Primary Tumor Weight", "setting": "[3]; doses not given", "result": "6274 ± 690", "unit": "mg"},
      {"measurement": "Thrombotest", "setting": "coagulation; doses not given", "result": 180}
    ]}
  ]
}
